Drawing on patent US20110020518A1, “TASTE MODIFYING PRODUCT” (priority 2008, published 2011), this text covers Kokumi/Umami taste intensity for eleven compounds.

The experiment has as its system kokumi/umami taste. As to the kind of experiment: Evaluation of alkylpyridines: taste panel of 8 trained panelists, samples in 0.3% aqueous NaCl. In kind it is in vivo. The conditions noted are these: scale 0 (no effect) to 10 (extremely strong kokumi/umami effect). The method, then: Alkylpyridines shown in the following table were prepared by firstly being diluted into propylene glycol solvent in order to provide a 10% solution of the alkylpyridine. Each solution was then diluted using a 0.3% aqueous solution of NaCl, heated if necessary to achieve better dissolution, to a concentration of between 10 ppm and 30 ppm of the alkylpyridine. The samples were then stored at ambient temperature.
A panel consisting of 8 trained panelists evaluated the samples for taste properties on a scale of 0 to 10 where 0 denoted no kokumi/umami effect and 10 denoted extremely strong kokumi/umami effect.

As for `CCc1ccccn1` [2-Ethylpyridine, reference compound], the Kokumi/Umami taste intensity (10 ppm in 0.3% aqueous NaCl) was 0.
For the setting “10 ppm in 0.3% aqueous NaCl”, `CCCCCCCCc1ccccn1` [Compound of ex. 2, 2-octylpyridine] displayed a Kokumi/Umami taste intensity of 2.
As to `CCCCCCCCCCCc1ccccn1` [Compound of ex. 4, 2-undecylpyridine], the Kokumi/Umami taste intensity (10 ppm in 0.3% aqueous NaCl) stood at 0.
For `CCCCCCCCCCCCc1ccccn1` [Compound of ex. 5, 2-dodecylpyridine], the Kokumi/Umami taste intensity (10 ppm in 0.3% aqueous NaCl) was found to be 0.
Still for that read-out and setting: for `CCCCCCc1ccccn1` [2-Hexylpyridine] the value was 7; for `CCCCCc1cc(C)ccn1` [Compound of ex. 6, 4-methyl-2-pentylpyridine], 0.
Regarding `Cc1ccccn1` [2-picoline, reference compound], for the setting “20 ppm in 0.3% aqueous NaCl”, the Kokumi/Umami taste intensity came out at 0.
The compound `CCCCCCCc1ccccn1` [Compound of ex. 1, 2-heptylpyridine] gave a Kokumi/Umami taste intensity (10 ppm in 0.3% aqueous NaCl) of 7.
Turning to `c1ccncc1` [Pyridine, reference compound], for the setting “30 ppm in 0.3% aqueous NaCl”, the Kokumi/Umami taste intensity is 0.
Turning to `CCCc1ccccn1` [2-Propylpyridine, reference compound], for the setting “10 ppm in 0.3% aqueous NaCl”, the Kokumi/Umami taste intensity came to 0.
Regarding `CCCCCCCCCc1ccccn1` [Compound of ex. 3, 2-nonylpyridine], where the note is “10 ppm in 0.3% aqueous NaCl”, the Kokumi/Umami taste intensity came out at 1.
